Data as given in paper PMC11213733, “Computational approaches identify a transcriptomic fingerprint of drug-induced structural cardiotoxicity” (Cell Biology and Toxicology, 2024).
Structures can show the parent of a compound that is named as a salt.

Legend:
cardiac microtissues [1] = experiment: Ingenuity Pathway Analysis over-representation of differentially expressed genes (activation Z-score); assay type: cell-based, human; details: 48hr high; Group 1
[2] = ref FDA label, cited from earlier work
cardiac microtissues [3] = experiment: Transcriptomic profiling (mRNA-seq) and DESeq2 differential gene expression analysis in cardiac microtissues; details: absolute log2(Fold-Change) > 1, FDR p ≤ 0.05

CC(=O)[C@]1(O)Cc2c(O)c3c(c(O)c2[C@@H](O[C@H]2C[C@H](N)[C@H](O)[C@H](C)O2)C1)C(=O)c1ccccc1C3=O [Idarubicin HCl]
activation Z-score: Acute Phase Response Signaling (cardiac microtissues [1]): -0.816 | activation Z-score: Apelin Liver Signaling Pathway (cardiac microtissues [1]): -0.707 | activation Z-score: BER (Base Excision Repair) Pathway (cardiac microtissues [1]): -2.333 | activation Z-score: Cardiac Hypertrophy Signaling (cardiac microtissues [1]): -1.732 | activation Z-score: Cardiomyocyte Differentiation via BMP Receptors (cardiac microtissues [1]): -2.236 | activation Z-score: Cell Cycle Control of Chromosomal Replication (cardiac microtissues [1]): -3.71 | activation Z-score: Cell Cycle Regulation by BTG Family Proteins (cardiac microtissues [1]): -1.342 | activation Z-score: Cyclins and Cell Cycle Regulation (cardiac microtissues [1]): -1.941 | activation Z-score: D-myo-inositol-5-phosphate Metabolism (cardiac microtissues [1]): 0.258 | activation Z-score: DNA Methylation and Transcriptional Repression Signaling (cardiac microtissues [1]): -0.535 | activation Z-score: Estrogen-mediated S-phase Entry (cardiac microtissues [1]): -1.897 | activation Z-score: Factors Promoting Cardiogenesis in Vertebrates (cardiac microtissues [1]): -2.117 | activation Z-score: G-Protein Coupled Receptor Signaling (cardiac microtissues [1]): 0.53 | activation Z-score: GP6 Signaling Pathway (cardiac microtissues [1]): 0.378 | activation Z-score: Glioma Invasiveness Signaling (cardiac microtissues [1]): -0.632 | activation Z-score: HIF1Î± Signaling (cardiac microtissues [1]): 0.209 | activation Z-score: HMGB1 Signaling (cardiac microtissues [1]): -0.577 | activation Z-score: Hepatic Fibrosis Signaling Pathway (cardiac microtissues [1]): -1.508 | activation Z-score: ILK Signaling (cardiac microtissues [1]): -3 | activation Z-score: Insulin Secretion Signaling Pathway (cardiac microtissues [1]): -0.192 | activation Z-score: Integrin Signaling (cardiac microtissues [1]): -1.877 | activation Z-score: Kinetochore Metaphase Signaling Pathway (cardiac microtissues [1]): -2.556 | activation Z-score: Mismatch Repair in Eukaryotes (cardiac microtissues [1]): -2.333 | activation Z-score: Mitotic Roles of Polo-Like Kinase (cardiac microtissues [1]): -1.604 | activation Z-score: NER (Nucleotide Excision Repair, Enhanced Pathway) (cardiac microtissues [1]): -2.183 | activation Z-score: Nitric Oxide Signaling in the Cardiovascular System (cardiac microtissues [1]): 0.775 | activation Z-score: Protein Kinase A Signaling (cardiac microtissues [1]): 0.302 | activation Z-score: Pyridoxal 5'-phosphate Salvage Pathway (cardiac microtissues [1]): -1 | activation Z-score: RHOGDI Signaling (cardiac microtissues [1]): 0.816 | activation Z-score: Regulation Of The Epithelial Mesenchymal Transition By Growth Factors Pathway (cardiac microtissues [1]): -1.147 | activation Z-score: Role of NFAT in Cardiac Hypertrophy (cardiac microtissues [1]): -1.512 | activation Z-score: SPINK1 General Cancer Pathway (cardiac microtissues [1]): 2.333 | activation Z-score: Salvage Pathways of Pyrimidine Ribonucleotides (cardiac microtissues [1]): -1 | activation Z-score: Senescence Pathway (cardiac microtissues [1]): 1.768 | activation Z-score: Sphingosine-1-phosphate Signaling (cardiac microtissues [1]): 0 | activation Z-score: Superpathway of Inositol Phosphate Compounds (cardiac microtissues [1]): 0.894 | activation Z-score: Thrombin Signaling (cardiac microtissues [1]): -0.471 | activation Z-score: White Adipose Tissue Browning Pathway (cardiac microtissues [1]): -2.449 | activation Z-score: Wound Healing Signaling Pathway (cardiac microtissues [1]): -0.164 | activation Z-score: cAMP-mediated signaling (cardiac microtissues [1]): 0 | Structural cardiotoxin? ([2]; FDA label references heart failure or a decrease in left ventricular ejection fraction): Y | Functional cardiotoxin? ([2]; compound annotation): Y | number of significant differentially expressed genes, 6hr high (cardiac microtissues [3]; 6 hr, high concentration): 24 | number of significant differentially expressed genes, 6hr low (cardiac microtissues [3]; 6 hr, low concentration): 12 | number of significant differentially expressed genes, 48hr high (cardiac microtissues [3]; 48 hr, high concentration): 2838 | number of significant differentially expressed genes, 48hr low (cardiac microtissues [3]; 48 hr, low concentration): 578 | number of significant differentially expressed genes, 72hr high (cardiac microtissues [3]; 72 hr, high concentration): 1616 | number of significant differentially expressed genes, 72hr low (cardiac microtissues [3]; 72 hr, low concentration): 864
